{"source": "patent US11939327B2", "about": "“Heterocyclic compounds” (Takeda Pharmaceutical Company Limited, priority 2017, dated 2024)", "data": [{"target": "T1, human GluR1 flip (Homo sapiens, UniProt P42261)", "T1 construct": "expressed in transfected cells; host or cells: CHO-K1", "T1 sequence (P42261 19-906 isoform P42261-2 limits assumed)": "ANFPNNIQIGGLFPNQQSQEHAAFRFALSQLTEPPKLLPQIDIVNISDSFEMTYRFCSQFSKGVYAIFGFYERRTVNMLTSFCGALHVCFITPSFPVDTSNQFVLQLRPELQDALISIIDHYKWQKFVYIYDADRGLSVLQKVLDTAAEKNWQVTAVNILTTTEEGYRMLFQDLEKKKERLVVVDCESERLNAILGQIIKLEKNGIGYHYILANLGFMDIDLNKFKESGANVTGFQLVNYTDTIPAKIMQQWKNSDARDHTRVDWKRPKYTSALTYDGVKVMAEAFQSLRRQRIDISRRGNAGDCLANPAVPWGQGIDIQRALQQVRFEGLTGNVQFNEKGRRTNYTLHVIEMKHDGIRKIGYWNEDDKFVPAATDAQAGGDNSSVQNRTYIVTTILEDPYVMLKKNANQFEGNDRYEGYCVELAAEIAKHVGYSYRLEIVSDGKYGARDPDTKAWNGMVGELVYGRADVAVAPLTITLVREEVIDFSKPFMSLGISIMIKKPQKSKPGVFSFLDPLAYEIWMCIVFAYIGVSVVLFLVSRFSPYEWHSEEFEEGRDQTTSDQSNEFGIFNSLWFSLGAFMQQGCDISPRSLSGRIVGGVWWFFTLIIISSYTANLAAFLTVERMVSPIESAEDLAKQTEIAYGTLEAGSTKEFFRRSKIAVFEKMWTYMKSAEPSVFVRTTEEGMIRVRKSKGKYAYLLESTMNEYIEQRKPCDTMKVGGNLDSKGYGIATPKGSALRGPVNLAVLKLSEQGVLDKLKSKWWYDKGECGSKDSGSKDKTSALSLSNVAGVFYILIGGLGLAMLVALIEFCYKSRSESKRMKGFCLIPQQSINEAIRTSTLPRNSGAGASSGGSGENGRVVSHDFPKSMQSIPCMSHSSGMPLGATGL", "T1 sequence (Q9Y698 whole entry partner)": "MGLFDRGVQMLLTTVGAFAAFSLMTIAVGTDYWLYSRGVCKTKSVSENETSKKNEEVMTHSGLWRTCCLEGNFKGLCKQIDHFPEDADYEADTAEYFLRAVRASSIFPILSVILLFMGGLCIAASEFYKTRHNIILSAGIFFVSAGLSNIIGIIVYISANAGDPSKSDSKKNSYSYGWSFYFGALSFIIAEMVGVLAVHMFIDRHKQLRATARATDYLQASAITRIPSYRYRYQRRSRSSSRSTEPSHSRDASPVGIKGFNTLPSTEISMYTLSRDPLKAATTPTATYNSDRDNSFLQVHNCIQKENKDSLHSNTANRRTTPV", "test": "AMPA receptor function-enhancing activity using calcium influx as index (CHO-K1/GluR1 flip/stargazin-expressing cells)", "type": "cell-based", "details": "CHO-K1, test compound 30 μM with 3 mM glutamic acid, 100% = 3 mM glutamic acid + 300 μM cyclothiazide, 0% = 3 mM glutamic acid alone, read-out: hGluR1 flip/30 μM (%)", "excerpt": "(§1) Experimental Example 1 Measurement method of AMPA receptor function-enhancing activity of compound using calcium influx as index\n(§2) (1) Construction of Expression Gene\n(§3) Human GluR1 flip cDNA was amplified by PCR method using forward primer […] (SEQ ID NO: 1) and reverse primer […] (SEQ ID NO: 2) artificially synthesized using human brain-derived cDNA (BD Bioscience) as a template. The amplified product was digested with restriction enzymes EcoRI, NotI (TAKARA SHUZO CO. LTD.) and incorporated into the same site of pcDNA3.1(+) (Invitrogen) to construct pcDNA3.1(+)/human GluR1 flip gene. Human stargazin cDNA was amplified by PCR method using forward primer […] (SEQ ID NO: 3) and reverse primer […] (SEQ ID NO: 4) artificially synthesized using human hippocampus cDNA as a template. The amplified product was digested with restriction enzymes XhoI, BamHI (TAKARA SHUZO CO. LTD.) and incorporated into the same site of pcDNA3.1(−) (Invitrogen) to construct pcDNA3.1 Zeo(−)/human stargazing gene.\n(§4) (2) Construction of GluR1 Flip/Stargazin Expressing Cell\n(§5) CHO-K1 cells passaged in a culture medium (Ham's F12 medium (Invitrogen) added with 10% inactivated fetal bovine serum (Morgate) and penicillin, streptomycin (Invitrogen)) were detached using 0.05% trypsin and 0.53 mM EDTA (Invitrogen) diluted with D-PBS(−). The detached cells were suspended in a culture medium, and recovered by centrifugation at 1,000 rpm. The recovered cells were re-suspended in D-PBS(−) and added into 0.4 cm electroporation cuvette (BioRad). pcDNA3.1(+)/human GluR1 flip gene (5 μg) and pcDNA3.1 Zeo(−)/human stargazin gene (15 μg) were added, and introduced into CHO-K1 cells under the conditions of 950 μFd, […] and using Gene Pulser II (BioRad). The introduced cells were cultured overnight in a culture medium. The next day, using a selection medium (culture medium added with zeocin (Invitrogen) at 250 μg/mL), the cells were plated in a 96 well plate at 250 cells/well. The clones showing drug resistance were selected, and GluR1 flip/stargazin expression clones were selected by an assay method shown below using calcium influx as an index.\n(§6) (3) Measurement Method of AMPA Receptor Function-Enhancing Activity of Compound, Using Calcium Influx as an Index\n(§7) CHO-K1/GluR1 flip/stargazin-expressing cells were plated on a 384 well black bottom transparent plate, and cultured for 2 days in a CO2 incubator (SANYO ELECTRIC Co. Ltd.) at 37° C. The medium of the cell plate was removed. A calcium indicator (Calcium5 Assay Kit, Molecular Devices) was diluted with an assay buffer (HBSS (Thermo Fisher Scientific), 0.1% BSA (Merck Millipoer) and 10 mM HEPES (Thermo Fisher Scientific)), and 1.25 mM probenecid (Dojindo Laboratories) was added thereto. The mixture prepared above was added at 30 μL/well (100 μL/well in case of 96 wells) to the well, and the well was left standing in 37° C., CO2 incubator for 1 hr. The cell plate was set in CellLux (PerkinElmer), a mixture (15 μL) (50 μL/well in case of 96 wells) of […] glutamic acid (final concentration 3 mM) diluted with an assay buffer and a test compound (test compound concentration 30 μM) was added thereto, and variation in the amount of fluorescence was measured for 3 min. The variation of fluorescence level of a well added with final concentration 3 mM of glutamic acid and 300 μM cyclothiazide (TOCRIS) was defined as 100%, the variation of fluorescence level of a well added with final concentration 3 mM of glutamic acid alone was defined as 0%, and the activity of the compound was calculated by the following formula. activity (%)=(X−C)/(T−C)×100 • T: variation of fluorescence level of well added with final concentration 3 mM of glutamic acid and 300 μM cyclothiazide • C: variation of fluorescence level of well added with final concentration 3 mM of glutamic acid alone • X: variation of fluorescence level of well added with test compound", "units": {"activation at 30 µM": "%"}, "values": [{"smiles": "CN(CCC#N)C(=O)c1ccc(-c2cccc3c2nc(C(F)(F)F)n3CC(F)F)cc1", "note": "[Example 21, N-(2-cyanoethyl)-4-(1-(2,2-difluoroethyl)-2-(trifluoromethyl)-1H-benzimidazol-4-yl)-N-methylbenzamide]", "activation at 30 µM": 93.7}, {"smiles": "O=C(c1ccc(-c2nccc3c2nc(C(F)(F)F)n3CC(F)F)cc1F)N1CCC1", "note": "[Example 24, azetidin-1-yl(4-(1-(2,2-difluoroethyl)-2-(trifluoromethyl)-1H-imidazo[4,5-c]pyridin-4-yl)-2-fluorophenyl)methanone]", "activation at 30 µM": 78.1}, {"smiles": "O=C(c1ccc(-c2nccc3c2nc(C(F)(F)F)n3CC(F)F)cc1F)N1CC(F)(F)C1", "note": "[Example 26, (3,3-difluoroazetidin-1-yl)(4-(1-(2,2-difluoroethyl)-2-(trifluoromethyl)-1H-imidazo[4,5-c]pyridin-4-yl)-2-fluorophenyl)methanone]", "activation at 30 µM": 79.3}, {"smiles": "CN(C(=O)c1ccc(-c2nccc3c2nc(C(F)(F)F)n3CC(F)F)cc1F)C1CCOCC1", "note": "[Example 28, 4-(1-(2,2-difluoroethyl)-2-(trifluoromethyl)-1H-imidazo[4,5-c]pyridin-4-yl)-2-fluoro-N-methyl-N-(tetrahydro-2H-pyran-4-yl)benzamide]", "activation at 30 µM": 97.8}, {"smiles": "O=C(c1ccc(-c2cccc3c2nc(C(F)(F)F)n3CC(F)F)cc1)N1CCOCC(F)(F)C1", "note": "[Example 29, (4-(1-(2,2-difluoroethyl)-2-(trifluoromethyl)-1H-benzimidazol-4-yl)phenyl)(6,6-difluoro-1,4-oxazepan-4-yl)methanone]", "activation at 30 µM": 93}, {"smiles": "O=C(c1ccc(-c2nccc3c2nc(C(F)(F)F)n3CC(F)F)cc1F)N1CCOCC(F)(F)C1", "note": "[Example 34, (4-(1-(2,2-difluoroethyl)-2-(trifluoromethyl)-1H-imidazo[4,5-c]pyridin-4-yl)-2-fluorophenyl)(6,6-difluoro-1,4-oxazepan-4-yl)methanone]", "activation at 30 µM": 94.2}, {"smiles": "O=C(c1ccc(-c2c(F)ccc3c2nc(C(F)(F)F)n3CC(F)F)cc1)N1CCOCC1", "note": "[Example 36, (4-(1-(2,2-difluoroethyl)-5-fluoro-2-(trifluoromethyl)-1H-benzimidazol-4-yl)phenyl)(morpholin-4-yl)methanone]", "activation at 30 µM": 93.5}, {"smiles": "CO[C@@H]1CCN(C(=O)c2ccc(-c3nccc4c3nc(C(F)(F)F)n4CC(F)F)cc2F)C1", "note": "[Example 37, (4-(1-(2,2-difluoroethyl)-2-(trifluoromethyl)-1H-imidazo[4,5-c]pyridin-4-yl)-2-fluorophenyl)((3R)-3-methoxypyrrolidin-1-yl)methanone]", "activation at 30 µM": 89.8}, {"smiles": "Cc1cc2c(nc(C(F)(F)F)n2CC(F)F)c(-c2ccc(C(=O)N3CCOCC(F)(F)C3)c(F)c2)n1", "note": "[Example 38, (4-(1-(2,2-difluoroethyl)-6-methyl-2-(trifluoromethyl)-1H-imidazo[4,5-c]pyridin-4-yl)-2-fluorophenyl)(6,6-difluoro-1,4-oxazepan-4-yl)methanone]", "activation at 30 µM": 100}, {"smiles": "O=C(c1ccc(-c2cccc3c2nc(C(F)(F)F)n3CC(F)F)cn1)N1CCOCC(F)(F)C1", "note": "[Example 39, (5-(1-(2,2-difluoroethyl)-2-(trifluoromethyl)-1H-benzimidazol-4-yl)pyridin-2-yl)(6,6-difluoro-1,4-oxazepan-4-yl)methanone]", "activation at 30 µM": 110}, {"smiles": "O=C(c1ccc(-c2nccc3c2nc(C(F)(F)F)n3CC(F)F)c(F)c1F)N1CCOCC1", "note": "[Example 42, (4-(1-(2,2-difluoroethyl)-2-(trifluoromethyl)-1H-imidazo[4,5-c]pyridin-4-yl)-2,3-difluorophenyl)(morpholin-4-yl)methanone]", "activation at 30 µM": 83.9}, {"smiles": "C[C@@H]1CN(C(=O)c2ccc(-c3nccc4c3nc(C(F)(F)F)n4CC(F)F)cc2F)CCO1", "note": "[Example 44, (4-(1-(2,2-difluoroethyl)-2-(trifluoromethyl)-1H-imidazo[4,5-c]pyridin-4-yl)-2-fluorophenyl)((2R)-2-methylmorpholin-4-yl)methanone]", "activation at 30 µM": 85.5}, {"smiles": "O=C(c1ccc(-c2cccc3c2nc(C(F)(F)F)n3CC(F)F)nc1)N1CCOCC(F)(F)C1", "note": "[Example 46, (6-(1-(2,2-difluoroethyl)-2-(trifluoromethyl)-1H-benzimidazol-4-yl)pyridin-3-yl)(6,6-difluoro-1,4-oxazepan-4-yl)methanone]", "activation at 30 µM": 77}, {"smiles": "O=C(c1ccc(-c2nccc3c2nc(C(F)(F)F)n3CC(F)F)cc1F)N1CCOCC2(CC2)C1", "note": "[Example 48, (4-(1-(2,2-difluoroethyl)-2-(trifluoromethyl)-1H-imidazo[4,5-c]pyridin-4-yl)-2-fluorophenyl)(5-oxa-8-azaspiro[2.6]non-8-yl)methanone]", "activation at 30 µM": 80.2}, {"smiles": "O=C(c1ccc(-c2nccc3c2nc(C(F)(F)F)n3CC(F)F)cc1)N1CCOCC(F)(F)C1", "note": "[Example 50, (4-(1-(2,2-difluoroethyl)-2-(trifluoromethyl)-1H-imidazo[4,5-c]pyridin-4-yl)phenyl)(6,6-difluoro-1,4-oxazepan-4-yl)methanone]", "activation at 30 µM": 122}, {"smiles": "O=C(c1ccc(-c2cccc3c2nc(C(F)(F)F)n3CC(F)F)c(F)c1)N1CCOCC1", "note": "[Example 51, (4-(1-(2,2-difluoroethyl)-2-(trifluoromethyl)-1H-benzimidazol-4-yl)-3-fluorophenyl)(morpholin-4-yl)methanone]", "activation at 30 µM": 113}, {"smiles": "COC1CCN(C(=O)c2ccc(-c3nccc4c3nc(C(F)(F)F)n4CC(F)F)cc2F)CC1", "note": "[Example 52, (4-(1-(2,2-difluoroethyl)-2-(trifluoromethyl)-1H-imidazo[4,5-c]pyridin-4-yl)-2-fluorophenyl)(4-methoxypiperidin-1-yl)methanone]", "activation at 30 µM": 67.1}, {"smiles": "O=C(c1ccc(-c2nccc3c2nc(C(F)(F)F)n3CC(F)F)c(F)c1)N1CCOCC1", "note": "[Example 53, (4-(1-(2,2-difluoroethyl)-2-(trifluoromethyl)-1H-imidazo[4,5-c]pyridin-4-yl)-3-fluorophenyl)(morpholin-4-yl)methanone]", "activation at 30 µM": 69}]}, {"target": "T1, human GluR1 flip", "test": "AMPA receptor function-enhancing activity using calcium influx as index (CHO-K1/GluR1 flip/stargazin-expressing cells)", "type": "cell-based", "details": "test compound 30 μM with 3 mM glutamic acid, 100% = 3 mM glutamic acid + 300 μM cyclothiazide, 0% = 3 mM glutamic acid alone", "excerpt": "as §1, §2, §3, §4, §5, §6, §7", "units": {"hGluR1 flip/30 μM (%)": "%"}, "values": [{"smiles": "O=C(c1ccc(-c2cccc3c2nc(C(F)(F)F)n3CC(F)F)cc1)N1CCOC(C(F)F)C1", "note": "(stereo not drawn) [Example 22, (4-(1-(2,2-difluoroethyl)-2-(trifluoromethyl)-1H-benzimidazol-4-yl)phenyl)(2-(difluoromethyl)morpholin-4-yl)methanone]", "hGluR1 flip/30 μM (%)": 105.5}, {"smiles": "O=C(c1ccc(-c2cccc3c2nc(C(F)(F)F)n3CC(F)F)cc1)N1CCOC(C(F)F)C1", "note": "(stereo not drawn) [Example 23, (4-(1-(2,2-difluoroethyl)-2-(trifluoromethyl)-1H-benzimidazol-4-yl)phenyl)(2-(difluoromethyl)morpholin-4-yl)methanone]", "hGluR1 flip/30 μM (%)": 103}, {"smiles": "CN(CCC#N)C(=O)c1ccc(-c2nccc3c2nc(C(F)(F)F)n3CC(F)F)cc1F", "note": "[Example 30, N-(2-cyanoethyl)-4-(1-(2,2-difluoroethyl)-2-(trifluoromethyl)-1H-imidazo[4,5-c]pyridin-4-yl)-2-fluoro-N-methylbenzamide]", "hGluR1 flip/30 μM (%)": 92.6}]}]}
